Test results from ChEMBL document CHEMBL1144403, “Novel immunomodulator FTY720 is phosphorylated in rats and humans to form a single stereoisomer. Identification, chemical proof, and biological characterization of the biologically active species and its enantiomer” (J Med Chem, 2005).

Tests used:
Format in all cases: functional, cell-based
[1] = target: T1, Sphingosine 1-phosphate receptor 4 (Homo sapiens, UniProt O95977); assay: Agonism of human S1P-4 receptor expressed in CHO cells, 90-120 min in pH 7.4 using [35S]GTP-gamma-S as radioligand
T1 sequence (O95977 whole entry): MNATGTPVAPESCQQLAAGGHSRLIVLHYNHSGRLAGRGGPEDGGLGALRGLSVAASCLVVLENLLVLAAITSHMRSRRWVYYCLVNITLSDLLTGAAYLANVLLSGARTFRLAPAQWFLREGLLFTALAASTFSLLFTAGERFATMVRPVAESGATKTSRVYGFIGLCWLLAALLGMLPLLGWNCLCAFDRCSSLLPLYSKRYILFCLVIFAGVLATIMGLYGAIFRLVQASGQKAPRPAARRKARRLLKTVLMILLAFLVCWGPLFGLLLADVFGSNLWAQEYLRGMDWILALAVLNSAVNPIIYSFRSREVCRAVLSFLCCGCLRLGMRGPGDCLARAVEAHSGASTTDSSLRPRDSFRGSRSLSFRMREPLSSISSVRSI

[2] = target: Sphingosine 1-phosphate receptor 2 (Homo sapiens, UniProt O95136); assay: Agonism of human S1P-2 receptor expressed in CHO cells, 90-120 min in pH 7.4 using [35S]GTP-gamma-S as radioligand
[3] = target: Sphingosine 1-phosphate receptor 3 (Homo sapiens, UniProt Q99500); assay: Agonism of human S1P-3 receptor expressed in CHO cells, 90-120 min in pH 7.4 using [35S]GTP-gamma-S as radioligand
[4] = target: Sphingosine 1-phosphate receptor 5 (Homo sapiens, UniProt Q9H228); assay: Agonism of human S1P-5 receptor expressed in CHO cells, 90-120 min in pH 7.4 using [35S]GTP-gamma-S as radioligand
Sequence of Sphingosine 1-phosphate receptor 5 (Q9H228 whole entry): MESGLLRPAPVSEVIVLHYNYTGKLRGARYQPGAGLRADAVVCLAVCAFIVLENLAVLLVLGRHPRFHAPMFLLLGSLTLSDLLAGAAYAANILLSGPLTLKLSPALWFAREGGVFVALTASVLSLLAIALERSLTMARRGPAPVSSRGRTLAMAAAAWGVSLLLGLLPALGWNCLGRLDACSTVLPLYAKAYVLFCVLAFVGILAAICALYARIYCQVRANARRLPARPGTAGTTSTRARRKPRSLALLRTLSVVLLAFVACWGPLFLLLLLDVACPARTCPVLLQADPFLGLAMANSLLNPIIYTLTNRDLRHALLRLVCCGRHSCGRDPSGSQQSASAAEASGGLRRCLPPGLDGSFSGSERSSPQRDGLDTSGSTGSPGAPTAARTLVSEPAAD

Sequence of Sphingosine 1-phosphate receptor 3 (Q99500 whole entry): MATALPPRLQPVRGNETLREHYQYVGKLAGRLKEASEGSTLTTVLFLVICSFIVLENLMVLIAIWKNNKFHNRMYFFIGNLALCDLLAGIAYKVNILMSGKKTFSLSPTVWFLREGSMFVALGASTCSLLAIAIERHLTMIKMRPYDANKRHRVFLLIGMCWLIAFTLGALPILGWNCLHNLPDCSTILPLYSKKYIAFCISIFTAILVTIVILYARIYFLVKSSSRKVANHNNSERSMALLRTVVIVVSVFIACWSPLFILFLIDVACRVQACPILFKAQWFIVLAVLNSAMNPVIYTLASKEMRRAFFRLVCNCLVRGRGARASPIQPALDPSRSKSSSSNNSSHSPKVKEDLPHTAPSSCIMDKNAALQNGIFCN
Sequence of Sphingosine 1-phosphate receptor 2 (O95136 whole entry): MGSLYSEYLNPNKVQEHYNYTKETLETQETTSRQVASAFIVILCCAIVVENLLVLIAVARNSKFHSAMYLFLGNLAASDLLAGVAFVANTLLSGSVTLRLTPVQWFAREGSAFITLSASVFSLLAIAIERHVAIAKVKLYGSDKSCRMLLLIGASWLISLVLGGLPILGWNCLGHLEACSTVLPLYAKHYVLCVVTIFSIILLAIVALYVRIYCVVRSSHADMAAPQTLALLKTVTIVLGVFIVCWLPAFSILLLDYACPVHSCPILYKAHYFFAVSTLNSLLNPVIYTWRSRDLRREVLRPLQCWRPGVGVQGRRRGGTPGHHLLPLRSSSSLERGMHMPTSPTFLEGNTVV

EC50 [1]	EC50 [2]	EC50 [3]	EC50 [4]	Structure (SMILES)
80.1 nM	–	–	–	CCCCCCCCc1ccc(CC[C@@](N)(CO)COP(=O)(O)O)cc1
2.4 nM	–	–	–	CCCCCCCCc1ccc(CCC(N)(CO)COP(=O)(O)O)cc1 (racemic)
> 10000 nM	> 10000 nM	> 10000 nM	> 10000 nM	CCCCCCCCc1ccc(CCC(N)(CO)CO)cc1 [FINGOLIMOD]
0.6 nM	–	–	–	CCCCCCCCc1ccc(CC[C@](N)(CO)COP(=O)(O)O)cc1 [FTY720-P]
